In patent US8349553B2, “Jasmonate based assays for identifying compounds that selectively inhibit mitochondrial bound hexokinases” (Ramot at Tel Aviv University Ltd., priority 2007, dated 2013):

What was measured:
[1] = test system: mitochondria-bound hexokinase (mitochondrial fraction of B16 melanoma tumors); assay: Hexokinase detachment assay, mitochondrial fraction of B16 melanoma tumors; type: biochemical, murine; conditions: B16 tumor mitochondrial fraction; 30 minutes at 37° C.
Description: Mitochondrial fraction was prepared by mechanical lysis and differential centrifugation. All stages were performed on ice. Cells or extracted tissues were washed with PBS and disrupted by homogenization in extraction buffer (Sucrose 250 mM, HEPES-NaOH 10 mM, pH 7.2) freshly supplemented with 0.1 mM EDTA and Protease Inhibitors cocktail (Sigma). For each gram of cells or tissue, 4 volumes of extraction buffer were applied. The homogenate volume was doubled with the extraction buffer, and tissue and cell debris as well as nuclei were pelleted by centrifugation of 1,000 g for 10 minutes. The supernatant was further spun at 13,000 g for 10 minutes twice. Endoplasmic reticulum layer was removed. The pellet, designated as the mitochondrial fraction, was suspended in the appropriate buffer, depending on the assay for which the mitochondrial fraction was prepared. Mitochondrial fractions were used immediately or stored at −196° C. […] Activity of hexokinase in the supernatant (i.e., activity of the detached hexokinase) was determined spectrophotometrically at 340 nm. […] Mitochondrial fractions isolated from different cancer cells, namely Molt-4 cells, BCL-1 leukemic cells and B16 melanoma tumors were incubated for 30 minutes at 37° C., and the activity of unbound hexokinase was measured and compared to the activity of spontaneously (control) detached hexokinase. […]

[2] = test system: mitochondrial fraction isolated from CT-26 tumors; assay: Cytochrome c release from mitochondrial fraction; type: biochemical, murine; conditions: 3 mM
Description: Freshly isolated mitochondrial fraction, at a final concentration of 2 mg/ml in a volume of 100 μL, was incubated at 37° C. with the examined agent, e.g. methyl jasmonate, in a KCl-based respiratory buffer (150 mM KCl, 25 mM NaHCO3, 1 mM MgCl2, 3 mM KH2PO4, 20 mM Hepes, pH 7.4; Pastorino, 2002). Potassium succinate (5 mM) was added as respiratory substrate (Azoulay-Zohar, 2004). For the determination of cytochrome c release, mitochondrial fraction was pelleted at 20,000×g for 10 minutes at 4° C. Pellets were incubated for 40 minutes with lysis buffer (Tris HCl, pH 8, 20 mM, NaCl 137 mM, EDTA 2 mM, pH 8, 1% Triton-X-100, Protease Inhibitors cocktail: Sigma) on ice (Fingrut, 2005). Pellet lysates and supernatants were separated on 12% SDS-PAGE gels and electroblotted onto nitrocellulose membranes. Cytochrome c was detected by specific antibody (1:1000, BD PharMingen, San Diego, Calif.). Antigen-antibody complexes were stained with horseradish peroxidase-conjugated antibody (1:10,000, Santa Cruz Biotechnology, CA) and enhanced chemiluminescence (ECL) reagent (EZ-ECL, Biological Industries, Beit Haemek, Israel), and exposed to ECL film (Eastman Kodak, Rochester, N.Y., U.S.A.). Cytochrome c release from mitochondrial fraction isolated from CT-26 tumors occurred within the same time frame (15-60 minutes) required to detach hexokinase from mitochondria (FIG. 3). […]

[3] = biological target: T1, voltage-dependent anion channel (Rattus norvegicus, UniProt Q9Z2L0); assay: Voltage-dependent anion channel recording in planar lipid bilayer (channel alone); type: biochemical; conditions: 3 mM; voltage stepped from 0 mV to −40 mV
T1 construct: purified mitochondrial voltage-dependent anion channel reconstituted into a planar lipid bilayer; from tissue; host or cells: rat liver mitochondria
Description: Currents were measured with respect to the trans side of the membrane (ground).

hexokinase = assay: Hexokinase activity, agent added directly to the coupled assay mixture; type: biochemical; conditions: coupled pyruvate kinase/lactate dehydrogenase assay, 340 nm

T1 sequence (Q9Z2L0 whole entry): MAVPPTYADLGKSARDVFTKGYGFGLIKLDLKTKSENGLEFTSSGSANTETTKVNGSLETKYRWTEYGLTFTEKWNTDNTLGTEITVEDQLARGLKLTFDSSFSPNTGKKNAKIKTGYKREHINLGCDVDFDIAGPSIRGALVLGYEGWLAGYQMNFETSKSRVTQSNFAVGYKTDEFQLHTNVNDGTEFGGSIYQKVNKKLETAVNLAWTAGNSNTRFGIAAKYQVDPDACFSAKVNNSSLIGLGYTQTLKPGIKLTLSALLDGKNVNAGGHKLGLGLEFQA

`CC/C=C\CC1C(=O)CCC1CC(=O)OC` (centres unmarked) [methyl jasmonate] was tested. Which “detachment of hexokinase (activity of unbound hexokinase compared to control)” value [1] did it give?
The value was “detached hexokinase from mitochondrial fraction isolated from the three different cancer cells”.

What about the “time frame of cytochrome c release” value ([2]; CT-26 tumor mitochondrial fraction) of the same compound?
The value was 15 to 60 min.

And the “release of cytochrome c from isolated mitochondrial fraction” value ([2]; CT-26 tumor, 37° C.)?
Its value is “caused time-dependent release of cytochrome c”.

What about the “current passing through voltage-dependent anion channel (no hexokinase)” value [3] of the same compound?
The value was “showed no effect on the current passing through voltage-dependent anion channel”.

What about the “influence on hexokinase activity when added directly to the assay mixture” value (hexokinase) of the same compound?
The value was “neither methyl jasmonate nor jasmonic acid added directly to the assay mixture, influence hexokinase activity”.
